The record followed here is ChEMBL document CHEMBL1201862, “PubChem BioAssay data set” (2004).

One assay addresses Cytochrome P450 3A4 (Homo sapiens, UniProt P08684).
The target in the next assay is T1, Cytochrome P450 1A2 (Homo sapiens, UniProt P05177).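 Note: PubChem cytochrome P450 panel assay, CYP1A2 panel member.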
T1 sequence (P05177 whole entry): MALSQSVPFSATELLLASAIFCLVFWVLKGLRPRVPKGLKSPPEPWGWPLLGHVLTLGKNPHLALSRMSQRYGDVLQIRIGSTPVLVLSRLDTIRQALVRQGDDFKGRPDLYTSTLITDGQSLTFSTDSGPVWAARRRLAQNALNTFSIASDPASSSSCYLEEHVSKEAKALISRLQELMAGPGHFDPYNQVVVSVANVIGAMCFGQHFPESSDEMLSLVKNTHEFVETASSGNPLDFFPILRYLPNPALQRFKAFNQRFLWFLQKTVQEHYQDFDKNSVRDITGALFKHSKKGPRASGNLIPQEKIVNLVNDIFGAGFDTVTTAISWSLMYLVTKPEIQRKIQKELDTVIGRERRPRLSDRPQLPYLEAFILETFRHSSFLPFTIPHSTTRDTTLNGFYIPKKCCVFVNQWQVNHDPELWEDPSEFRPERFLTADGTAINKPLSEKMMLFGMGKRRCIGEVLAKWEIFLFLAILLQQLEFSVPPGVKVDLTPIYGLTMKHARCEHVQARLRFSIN

A further assay deals with Cytochrome P450 2C9 (Homo sapiens, UniProt P11712).
In the next assay the test system is INS1. Briefly: INS-1E survival protection against cytokine death – cell-based, luminescence, retest, dose response (AID 449756).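 Note: cell death triggered by IL-1 beta plus TNF-alpha plus IFN-gamma mixture; protective hits raise ATP signal compared with cytokine alone wells.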 In kind it is functional. Conditions: Rattus norvegicus.
For a further assay, the target named is Cytochrome P450 2C19 (Homo sapiens, UniProt P33261). Briefly: Cytochrome panel assay with activity outcomes. Panel member name: p450-cyp2c19 Compounds with AC50 equal or less than 10 uM are considered active. In kind it is functional. The following applies: read-out: AC50.
Assay [1] can be described thus: Luminescence Cell-Based Dose Retest to Confirm Inhibitors of Cancer Stem Cells. [Related pubchem assays (depositor defined):AID2717, AID2721]. The following applies: Homo sapiens. In kind it is functional.
The nature of assay [2]: Luminescence Cell-Based Dose Response HTS to Identify Activators of Luciferase Translation or Activity in H4 […] Cells. [Related pubchem assays: 1829 (Project Summary), 1814 (Primary HTS)]. It is filed as functional.
Assay [3] can be described thus: Luminescence Cell-Based Dose Confirmation HTS to Identify Activators of 5'UTR Stem-Loop Driven Alpha-Synuclein mRNA Translation in H4 Neuroglioblastoma Cells. [Related pubchem assays: 1829 (Project Summary), 1814 (Primary HTS)]. It is filed as functional.
The test system of the next assay is H4. Briefly: Luminescence Cell-Based Dose Response HTS to Identify Activators of 5'UTR Stem-Loop Driven Prion Protein mRNA Translation in H4 Neuroglioblastoma Cells. [Related pubchem assays: 1829 (Project Summary), 1814 (Primary HTS)]. In kind it is functional. The following applies: Homo sapiens.
The target in assay [4] is T2, Heat shock factor protein 1 (Mus musculus, UniProt P38532).
T2 sequence (P38532 whole entry): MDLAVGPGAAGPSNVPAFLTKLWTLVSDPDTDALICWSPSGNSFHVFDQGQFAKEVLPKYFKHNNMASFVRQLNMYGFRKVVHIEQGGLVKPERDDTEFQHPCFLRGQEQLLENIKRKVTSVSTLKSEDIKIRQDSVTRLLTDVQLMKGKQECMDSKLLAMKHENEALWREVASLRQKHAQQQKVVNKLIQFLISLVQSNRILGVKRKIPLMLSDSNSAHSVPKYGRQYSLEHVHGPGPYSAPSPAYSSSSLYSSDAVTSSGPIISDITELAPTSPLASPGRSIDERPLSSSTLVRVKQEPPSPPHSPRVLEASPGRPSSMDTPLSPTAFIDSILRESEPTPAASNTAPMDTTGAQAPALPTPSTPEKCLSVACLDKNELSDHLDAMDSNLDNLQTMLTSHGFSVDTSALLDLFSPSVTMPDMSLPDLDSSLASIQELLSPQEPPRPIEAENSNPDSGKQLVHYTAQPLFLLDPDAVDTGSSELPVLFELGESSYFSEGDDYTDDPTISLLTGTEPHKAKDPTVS
Put plainly: enhancement of HSF1-driven luciferase signal – cell-based, NIH3T3, luminescence, dose retest, confirmation (AID 435004).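 Note: stress induced by proteasome inhibitor MG132 added 30 min after compound; luciferase reporter driven by HSF1 response element in NIH3T3 cells; actives raise luminescence as potentiators of the MG132 stress response.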 In kind it is functional.

The nature of assay [5]: viability of uninfected HEp-2 cells – cell-based, HTS, cytotoxicity control for RSV inhibitor project, dose response (AID 2410). Conditions: human respiratory syncytial virus. It is filed as functional.
Assay [6] can be described thus: Trypanosoma cruzi growth suppression in host cells – NIH3T3 host cells, beta-gal luminescence, confirmation (AID 2044).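 Note: intracellular parasites grown in NIH/3T3 mouse fibroblasts as host cells; luminescent beta-galactosidase reporter signal from transgenic T. cruzi replicating inside host cells; inhibitors lower the luminescence signal.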 It is filed as functional, cell-based.
Assay [7] can be described thus: NIH3T3 cell viability loss – ATP luminescence, mouse fibroblasts, counter-screen, dose response (AID 2010).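 Note: cells exposed to compound for about 90 hours before reading.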 In kind it is functional, cell-based. Background: A counterscreen serves to expose hits that act by an unwanted route or on another target.

SMILES strings stand for the structures. Active and inactive are the calls of the source. Some results are limits rather than exact numbers.

Chain of Cytochrome P450 2C9 (P11712 whole entry): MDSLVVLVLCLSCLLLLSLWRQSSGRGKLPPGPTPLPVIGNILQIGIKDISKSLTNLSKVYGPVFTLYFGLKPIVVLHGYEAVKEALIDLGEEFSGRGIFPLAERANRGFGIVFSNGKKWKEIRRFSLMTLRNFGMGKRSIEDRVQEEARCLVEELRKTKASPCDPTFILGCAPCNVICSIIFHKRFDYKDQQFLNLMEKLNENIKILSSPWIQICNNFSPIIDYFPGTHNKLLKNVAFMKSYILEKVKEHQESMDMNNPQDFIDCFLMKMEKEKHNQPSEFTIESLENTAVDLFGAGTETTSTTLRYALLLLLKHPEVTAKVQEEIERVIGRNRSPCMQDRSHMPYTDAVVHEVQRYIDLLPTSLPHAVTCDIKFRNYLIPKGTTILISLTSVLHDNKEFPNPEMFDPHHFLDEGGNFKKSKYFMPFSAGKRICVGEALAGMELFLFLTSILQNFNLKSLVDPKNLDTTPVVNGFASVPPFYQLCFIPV
Chain of Cytochrome P450 3A4 (P08684 whole entry): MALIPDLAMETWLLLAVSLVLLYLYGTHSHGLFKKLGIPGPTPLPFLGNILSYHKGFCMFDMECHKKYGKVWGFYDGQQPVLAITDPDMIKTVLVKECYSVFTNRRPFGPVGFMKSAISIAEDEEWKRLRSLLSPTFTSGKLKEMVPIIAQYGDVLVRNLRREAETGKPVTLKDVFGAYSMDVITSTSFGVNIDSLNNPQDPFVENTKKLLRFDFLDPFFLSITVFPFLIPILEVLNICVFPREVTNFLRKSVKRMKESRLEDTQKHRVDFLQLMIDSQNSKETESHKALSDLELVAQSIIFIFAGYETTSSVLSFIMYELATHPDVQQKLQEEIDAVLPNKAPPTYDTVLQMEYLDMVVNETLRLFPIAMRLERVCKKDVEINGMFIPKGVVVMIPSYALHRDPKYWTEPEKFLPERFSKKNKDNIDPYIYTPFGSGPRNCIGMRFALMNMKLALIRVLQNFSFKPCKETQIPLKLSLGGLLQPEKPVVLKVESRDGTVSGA
Chain of Cytochrome P450 2C19 (P33261 whole entry): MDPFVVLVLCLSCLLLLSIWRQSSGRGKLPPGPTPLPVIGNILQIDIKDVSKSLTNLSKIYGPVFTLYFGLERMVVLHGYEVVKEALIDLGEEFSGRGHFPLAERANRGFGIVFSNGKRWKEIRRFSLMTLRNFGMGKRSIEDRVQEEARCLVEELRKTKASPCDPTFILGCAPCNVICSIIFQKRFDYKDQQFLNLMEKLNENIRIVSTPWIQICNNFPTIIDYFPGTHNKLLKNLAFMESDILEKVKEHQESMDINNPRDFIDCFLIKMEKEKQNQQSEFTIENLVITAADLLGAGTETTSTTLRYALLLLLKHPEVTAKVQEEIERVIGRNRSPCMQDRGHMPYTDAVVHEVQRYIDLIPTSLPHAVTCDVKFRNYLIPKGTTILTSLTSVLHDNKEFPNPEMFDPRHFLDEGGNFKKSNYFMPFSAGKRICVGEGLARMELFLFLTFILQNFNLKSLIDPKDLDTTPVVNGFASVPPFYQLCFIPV

One may read the AC50 as the concentration at which the activity in the assay is half-maximal. Consider `COc1ccc(N2CCN(C(=O)CSc3nnc4c5cc(C)ccc5n(C)c4n3)CC2)cc1`, for which the values for the concentration at half-maximal activity (AC50) at Cytochrome P450 3A4, at Cytochrome P450 1A2 and at Cytochrome P450 2C9 were 1.12 µM (inconclusive), 5.62 µM (inconclusive) and 2.51 µM (inconclusive), respectively. With `COc1ccccc1NC(=O)Nc1nnc(-c2ccco2)s1`, the AC50 on Cytochrome P450 3A4 was 17.8 µM (inconclusive). On to `N=c1c2c(ncn1CCCO)Oc1ccc3ccccc3c1C2c1ccccc1` (stereo not drawn), for which the AC50 in the assay on INS1 was 24.4 µM (active). Take `CCCn1nc(NC(=O)CC(C)C)c2cc3ccccc3nc21`: the AC50 on Cytochrome P450 3A4 was 3.16 µM (inconclusive); on Cytochrome P450 2C19, 7.94 µM (inconclusive). Consider `COc1ccc(OC)c(C(=O)/C=C/c2ccccc2C(F)(F)F)c1`, for which the AC50 in [1] was 5.2 µM (active).

For the molecule `N=c1sc2ccccc2n1CC[S-].c1ccc2c(c1)sc1[n+]2CCS1`, the AC50 at Cytochrome P450 3A4 was 3.16 µM (inconclusive); on Cytochrome P450 2C9, 1.58 µM (inconclusive). Regarding `CC(C)(C)CC(C)(C)c1ccc(OCOCCOCCO)c(Cc2cc(C(C)(C)CC(C)(C)C)cc(Cc3cc(C(C)(C)CC(C)(C)C)ccc3OCOCCOCCO)c2OCOCCOCCO)c1`, the AC50 at Cytochrome P450 3A4 is 12.6 µM (inconclusive). The EC50 is the concentration giving half of the maximal effect. For `O=C(O)c1ccc(Cn2nnc3sc4c(c3c2=O)CCCC4)cc1`, the EC50 in assay [2] is 13.2 µM (active); in [3], 13.2 µM (active); in the assay on H4, 53.1 µM (active). In the case of `O=C(NC1CCCC1)c1ccc(CSCc2ccccc2F)o1`, the EC50 in assay [2] was 16.2 µM (active); in [3], > 120 µM (not active); in the assay with H4, > 120 µM (not active).

With `O=C(CCCN1CCC2(CC1)C(=O)N(Cc1cccc(F)c1)CN2c1ccccc1)c1ccc(F)cc1`, the AC50 is 31.6 µM (inconclusive) on Cytochrome P450 3A4, 39.8 µM (inconclusive) at Cytochrome P450 1A2 and 7.94 µM (inconclusive) at Cytochrome P450 2C19. For the molecule `CCCSc1nnc2n(N)c(=O)c3ccccc3n12`, on Cytochrome P450 3A4, the AC50 is 28.2 µM (inconclusive).

`COc1ccccc1C(=O)Nc1ccc2c(c1)nc(CCNC(=O)c1ccco1)n2C`: the results for the EC50 (in [2]; in assay [3]; with H4) were 81.6 µM (active), 20.2 µM (active) and > 120 µM (not active), respectively. Regarding `C=CCN1C(=O)C(Cc2ccc(OCC)cc2)S/C1=N/c1ccc(C(=O)O)cc1` (stereo not drawn), in assay [4], the EC50 is > 260 µM (inactive).

Consider `COc1ccccc1-c1nnc(SCC(=O)Nc2ccccc2)o1`, for which the EC50 in assay [2] was 4.37 µM (inconclusive); in [3], 0.382 µM (active); with H4, 66.2 µM (inconclusive). As to `COCCn1c(=O)c(-c2ccc(Cl)cc2)nc2cnc(Oc3ccccc3)nc21`, the values for the AC50 at Cytochrome P450 3A4 and at Cytochrome P450 2C19 were 25.1 µM (inconclusive) and 39.8 µM (inconclusive), respectively. For `COc1ccc(-c2sc3ccc(N4CCOCC4)cc3c2C#CC(C)(C)O)cc1`, the AC50 in assay [1] is 0.873 µM (active). With `CCc1ccc(-c2cc(C(F)(F)F)n3nc(C(=O)Nc4cnn(Cc5ccccc5C)c4)cc3n2)s1`, the AC50 on Cytochrome P450 3A4 is 3.16 µM (inconclusive). For the molecule `Cc1nnc(NC(=O)c2oc3c(ccc4ccccc43)c2C)s1`, the AC50 was 12.6 µM (inconclusive) at Cytochrome P450 3A4 and 17.8 µM (inconclusive) at Cytochrome P450 2C9. With `Cc1ccc(N2C(=O)C3C4C=CC(CC4)C3C2=O)cc1Br` (stereo not drawn), the AC50 in [1] was 0.678 µM (active). `CCn1c(SC)nnc1C1CCCN(CC(=O)Nc2ccccc2N2CCOCC2)C1` (stereo not drawn): in assay [4], the EC50 is > 260 µM (inactive). Take `O=C(Nc1ccc(Cn2cccn2)cc1)c1ccc(COc2cccc(Br)c2)cc1`: in assay [1], the AC50 was < 0.16 µM (active).

Take `COc1ccc(Cl)cc1NC(=O)CCc1nc(-c2ccccc2F)no1`: the EC50 in [4] was > 260 µM (inactive). Turning to `CSCC(=O)N1CCC(n2nccc2NC(=O)c2ccc3c(c2)OCO3)CC1`, the EC50 is 12.3 µM (active) in [2], 13.6 µM (active) in assay [3] and > 120 µM (not active) in the assay with H4. As to `COc1ccc2c(OC)c3ccoc3nc2c1OC` [SKIMMIANINE], the AC50 at Cytochrome P450 3A4 is 7.94 µM (inconclusive). As for `Cc1c(/N=C2\SCC(=O)N2/N=C\c2ccc(Br)cc2)c(=O)n(-c2ccccc2)n1C`, the EC50 in [4] is > 260 µM (inactive). Still for that read-out and setting: for `COCCOC(=O)C1=C(C)N=C(C)/C(=C(/O)OCCOC)C1/C=C/c1ccccc1OC` (stereo not drawn) the value was 45.7 µM (active). On the same count and under the same terms, as for `COc1ccc(C2Nc3ccccc3C(=O)N2NS(=O)(=O)c2ccc(C)cc2)cc1` (stereo not drawn), the figure is > 260 µM (inactive). On to `COc1ccccc1CC(=O)O/N=C(\N)c1cccc([N+](=O)[O-])c1`, for which the AC50 on Cytochrome P450 3A4 was 31.6 µM (inconclusive); on Cytochrome P450 1A2, 25.1 µM (inconclusive); on Cytochrome P450 2C19, 20 µM (inconclusive); on Cytochrome P450 2C9, 22.4 µM (inconclusive). As to `CCN(CCCNC(=O)COc1cc(=O)n(C)c2ccccc12)c1cccc(C)c1`, the EC50 in assay [4] is > 260 µM (inactive). Consider `O=C(NC(=S)N1CCCCC1)c1csc([N+](=O)[O-])c1`, for which the EC50 was > 120 µM (not active) in assay [2], 14.9 µM (active) in assay [3] and > 120 µM (not active) in the assay on H4. `CC(/C=N/NC(=O)c1cc(-c2ccc(C)s2)[nH]n1)=C\c1ccccc1`: in assay [1], the AC50 is 0.501 µM (active). Still for that read-out and setting: for `Cc1ccc(-n2nnnc2SC(C(=O)c2c[nH]c3ccccc23)c2ccccc2)cc1` (stereo not drawn) the value was 2.14 µM (active). For the molecule `Cc1cc(NC(=O)Cn2cnc3sc(C)c(-c4ccccc4)c3c2=O)no1`, the EC50 in assay [4] is > 260 µM (inactive).

For `O=C(O)CCn1[nH]c(=O)ccc1=O`, the EC50 in assay [4] is > 260 µM (inactive). In the case of `Cc1cccc(CNc2ccc(C(CC(N)=O)NC(=O)Cc3cccc4ccccc34)cc2[N+](=O)[O-])c1` (stereo not drawn), in [1], the AC50 is 5.85 µM (active). A word on the CC50: it is the concentration giving 50% cytotoxicity. Consider `Cc1cccc(Cn2cc(/C=C/[N+](=O)[O-])c3ccccc32)c1`, for which, in assay [1], the AC50 is 3.7 µM (active). Also, the CC50 in [5] was 12.7 µM (active).

As for `CCC1CCC2(CC1)SCC(=O)N2c1ccccc1` (stereo not drawn), the EC50 in assay [4] was > 260 µM (inactive). On to `CCCCCCCC/C=C\CCCCCCCC(N)=O` [OLEAMIDE], for which the values for the AC50 on Cytochrome P450 3A4 and on Cytochrome P450 2C19 were 50.1 µM (inconclusive) and 31.6 µM (inconclusive), respectively. With `COc1ccc(CCN2C(=S)N(C)C(=O)C2CC(=O)Nc2ccc(OC)cc2)cc1` (stereo not drawn), in [1], the AC50 was 5.5 µM (active). For the molecule `O=[N+]([O-])c1nn(-c2ccc3c(c2)OCCO3)[n+]([O-])c1NCCC1=CCCCC1`, the AC50 in assay [1] is 52.2 µM (active). Further, the EC50 in assay [6] was 0.574 µM (active); in assay [7], > 60 µM (not active); in the assay with H4, 77.1 µM (active). In the case of `O=C(CN1C(=O)S/C(=C\C=C\c2ccccc2)C1=O)N1CCOCC1`, the values for the EC50 (in assay [2]; in assay [3]; with H4) were 10.3 µM (active), 12.2 µM (active) and 17.8 µM (active), respectively.

Consider `O=C(Cc1ccc(F)cc1)Nc1nnc(SCC(=O)N2CCCCC2)s1`, for which the AC50 in assay [1] is 24.3 µM (active).

Take `O=C(CSc1nnc2c(Cl)cc(C(F)(F)F)cn12)N(Cc1ccccc1)Cc1ccccc1`: in [4], the EC50 was > 260 µM (inactive). Take `Cc1ccccc1Cn1nc(C)c(NC(=O)C2c3ccccc3Oc3ccccc32)c1C`: the EC50 in assay [4] was > 260 µM (inactive). As for `Cc1ccc(N=NC2=C(O)OC(C)(C)OC2=O)c(C)c1`, the EC50 is 14.7 µM (active) in [2], 15 µM (active) in assay [3] and 19.1 µM (active) with H4. For the molecule `CSc1ccc(CNc2ccccc2)cc1`, the AC50 at Cytochrome P450 3A4 is 35.5 µM (inconclusive).
